In patent publication US11420910B2, “Methods for low temperature fluorine-18 radiolabeling of biomolecules” (KATHOLIEKE UNIVERSITEIT LEUVEN, priority 2014, dated 2022):
“Also recorded” adds a separate entry of the source.

What was measured:
[1] = Stability tests of Al18F-complexes in PBS (0.1 M, pH 7) at 37° C., Example 26; type: physicochemical; details: PBS 0.1 M pH 7, 37° C.
Experimental: (§1) 400 μl of each purified [Al^18F]-complex solution was added to 1 mL of PBS and/or 1 mL of rat serum. […] Finally the supernatant was analysed using iTLC-SG.

[2] = Stability tests of Al18F-complexes in different buffers ranging from pH 2 to 8 (room temperature, iTLC-SG); type: physicochemical; details: for RCP: after 60 min
Experimental: (§2) 200 μl of the purified Al^18F-L3 solution was added to 1 mL of sodium phosphate buffer (0.1 M, pH 2), sodium phosphate buffer (0.1 M, pH 3), sodium acetate buffer (0.1 M, pH 4), sodium acetate buffer (0.1 M, pH 5), sodium acetate buffer (0.1 M, pH 6), PBS buffer (0.1 M, pH 7) or Tris-HCl buffer (0.1 M, pH 8). These mixtures were incubated at room temperature and analyzed by iTLC-SG at 30 and 60 min after the start of the incubation.
as §2, with “Al^18F-L26” for “Al^18F-L3”

[3] = Stability tests of Al18F-complexes in rat serum at 37° C., Example 26; type: in vitro ADME
Experimental: as §1

[4] = Stability test on the semi-automated [Al18F]-L3 batch at room temperature; type: physicochemical; details: incubation at room temperature for 2 hours
Experimental: To assess the efficiency of the labeling agent in a more realistic setting, the process for radiosynthesis and purification of [Al^18F]-L3 was performed semi-automatically. [^18F]fluoride was produced and trapped on a SepPak™ Light Accel plus QMA anion as described previously. The [^18F]F^− was eluted from the cartridge with an aqueous solution of sodium chloride 0.9% (0.2 mL) and added to 22.5 μl of 20 mM aluminum chloride (AlCl3) in sodium acetate buffer (0.1 M, pH 4). The solution was incubated at RT for 10 min to form {Al^18F}^2+. A solution of H3L3 (0.5 mL, 1.5 mM) was added and the reactor was heated at 40° C. for 12 min. After dilution with water (0.5 mL), the crude reaction mixture was injected onto a semi-preparative HPLC column (XBridge C18, 5 μm, 4.6 mm×150 mm, Waters) eluted with EtOH: sodium acetate 0.05M pH 5.5, 8:92 (v/v) at a flow rate of 1 mL/min. UV detection of the eluate was performed at 254 nm. Identification of the [Al^18F]-L3 complex was done by radio-LC-HRMS (Acquity UPLC BEH C18, 1.7 μm, 2.1 mm×150 mm, Waters. 0.6 mL/min A: H2O B: ACN, 0-2 min 5% B, 2 to 8 min 5% B to 95% B, 8-10 min 95% B, 10 to 12 min 95% B to 5% B).
H3L3 was labeled with {Al^18F}^2+ in a non-optimized yield of 74% (12 min 40° C., pH 4). The batch (4.63 GBq) was produced with a RCP higher than 98% in 35 min starting after elution of fluorine-18. […]

[5] = Biodistribution of Al18F-complexes and {Al18F}2+ in healthy male NMRI mice; type: in vivo; details: for uptake in blood / uptake in bone / uptake in intestines / uptake in kidneys / uptake in liver / uptake in urinary bladder: NMRI mice, tail vein
Experimental: (§3) Quantification of radioactivity during biodistribution studies was performed using an automated gamma counter equipped with a 3-inch NaI(TI) well crystal coupled to a multichannel analyzer, mounted in a sample changer (Perkin Elmer 1480 Wizard 3q). Counts were corrected for background radiation, physical decay and counter dead time.
(§4) The biodistribution of the [Al^18F]-L3 complex and {Al^18F}^2+ was determined in healthy male Naval Medical Research Institute (NMRI) mice (body weight: 30-40 g) at 10 and 60 min post injection (p.i.) (n=4/time point). Mice were injected with the [Al^18F]-L3 complex (about 1 MBq) or {Al^18F}^2+ (5.55 MBq) via a tail vein under anesthesia (2.5% isoflurane in O2 at 1 L/min flow rate) and sacrificed by decapitation at above specified time points. Blood and major organs were collected in tared tubes and weighed. The radioactivity in blood, organs and other body parts was counted using an automated γ-counter. For the calculation of total radioactivity in blood, bone and muscle, masses were assumed to be, respectively, 7, 12 and 40% of the total body mass.^20, 21
as §3, with “Nai(TI)” for “NaI(TI)”
as §4, with “[Al^18F]-L26” for “[Al^18F]-L3”, “(n=3/time point for 10 min p.i. and n=4/time point for 60 min p.i.).” for “(n=4/time point).”, “mass.^20,21” for “mass.^20, 21”

For `O=C1CN(Cc2ccccc2)CCN2CC(=O)[O][Al-]([18F])([O]1)[O]c1ccccc1C2` (stereo not drawn) [Al^18F-L3], the “stability in PBS (in words)” value [1] was “comparable to that of Al^18F-NODA-benzyl up to 60 minutes; also recorded: stability comparable to that of the previously reported Al^18F-NODA”, the RCP ([1]; 120 min) was 80% and the RCP ([1]; 240 min) was 70%. The “stability at different pH (in words)” value ([2]; buffers pH 2 to 8, room temperature, 30 and 60 min) was “not stable at pH 2, pH 3 and pH 4; also recorded: stable for at least 60 min in the pH range from 5 to 8”, the RCP ([2]; sodium acetate buffer 0.1 M pH 4, room temperature) was 75% and the RCP ([2]; sodium phosphate buffer 0.1 M pH 2, room temperature) was 58%. The RCP ([2]; sodium phosphate buffer 0.1 M pH 3, room temperature) was 68%, the “stability in rat serum (in words)” value [3] was “good stability in rat serum; also recorded: stability comparable to that of the previously reported Al^18F-NODA” and the RCP ([3]; 240 min) was 66%. For the same compound, the “[Al18F]-L3 still intact” value [4] was “more than 95%”, the uptake in blood ([5]; 10 min p.i.) was 1.1 % ID and the uptake in bone ([5]; 10 min p.i.) was 1.6 % ID. It also gave an uptake in intestines ([5]; 10 min p.i.) of 25.17 % ID, an uptake in kidneys ([5]; 10 min p.i.) of 2.2 % ID and an uptake in liver ([5]; 10 min p.i.) of 47.83 % ID. The “uptake in urinary bladder” value ([5]; 10 min p.i.) was 13.2 % ID, the uptake in blood ([5]; 60 min p.i.) was 0.3 % ID and the uptake in bone ([5]; 60 min p.i.) was 2.5 % ID. The uptake in intestines ([5]; 60 min p.i.) was 59.48 % ID, the uptake in kidneys ([5]; 60 min p.i.) was 1.0 % ID and the uptake in liver ([5]; 60 min p.i.) was 13.53 % ID. For the same compound, the “uptake in urinary bladder” value ([5]; 60 min p.i.) was 17.8 % ID, the “route of clearance (in words)” value ([5]; mice, 60 min p.i.) was “hepatobiliary clearance” and the “in vivo stability judged from bone uptake (in words)” value ([5]; mice, biodistribution) was “high stability”.
